Assay results: patent US11504371B2, “Quinazolines compound, preparation method therefor and application thereof” (Beijing Normal University, priority 2017, dated 2022)

Assays:
Type in all cases: cell-based
[1] = test system: human hepatoma cell line (HepG2); test: MTT assay, tumor cell proliferation inhibition, HepG2; conditions: 72 h, read-out: Tumor inhibition rate (IC50)
Procedure: (§1) Cell lines to be tested: human hepatoma cell line (HepG2), human lung cancer cell line (A549), human prostate cancer cell line (DU145), human breast cancer cell line (MCF-7), human neuroblastoma cell line (SH-SY5Y), human gastric mucosal cell line (Ges-1) and human embryonic lung fibroblast cell line (CCC-HPF-1) (the cells to be tested were purchased from the Cancer Hospital of Chinese Academy of Medical Sciences).
(§2) The cells in logarithmic growth phase were treated to prepare a single cell suspension, with the cell density adjusted, which was seeded in a 96-well cell culture plate. About 2×10^3 cells were contained in 100 μL per well, and cultured in a cell incubator at 37° C., 5% CO2, and saturated humidity for 24 h. The used medium was aspirated and abandoned, and then 100 μL of the target compound in different concentrations (0.1 μM-100 μM) were added for drug treatment. Five duplicate wells were prepared for each concentration. The background blank well, negative control well and positive control well were also prepared. All the wells were placed in a cell culture incubator at 37° C., 5% CO2, saturated humidity for another 72 h. Then, each well was added with 10 μL of MTT solution (5 mg/mL) and incubated for another 4 h. After that, each well was added with 100 μL of 10% SDS-0.1% NH4Cl (10% SDS purchased from Beijing Mengyimei Biotechnology Co., Ltd.) solution, and incubated at 37° C. for 10 h in the dark. Then, the absorbance OD was measured at 570 nm using a microplate reader at a reference wavelength of 650 nm. Cell proliferation inhibition was calculated according to the following formula: % inhibition=(ODcontrol−ODtreat)(ODcontrol−ODblank)×100. […] Each group was performed at least three times in parallel.

[2] = test system: human neuroblastoma cell line (SH-SY5Y); test: MTT assay, tumor cell proliferation inhibition, SH-SY5Y; conditions: for IC50: SH-SY5Y, 72 h, read-out: Tumor inhibition rate (IC50)
Procedure: as §1, §2

[3] = test system: human lung cancer cell line (A549); test: MTT assay, tumor cell proliferation inhibition, A549; conditions: for IC50: A549, MTT, 72 h, read-out: Tumor inhibition rate (IC50); for inhibitory activity on A549 (in words): MTT, summary of Table 1
Procedure: as §1, §2

[4] = test system: human breast cancer cell line (MCF-7); test: MTT assay, tumor cell proliferation inhibition, MCF-7; conditions: for IC50: MCF-7, MTT, 72 h, read-out: Tumor inhibition rate (IC50)
Procedure: as §1, §2

[5] = test system: human prostate cancer cell line (DU145); test: MTT assay, tumor cell proliferation inhibition, DU145; conditions: DU145, MTT, 72 h; read-out: Tumor inhibition rate (IC50)
Procedure: as §1, §2

| SMILES | IC50 [1] | IC50 [2] | IC50 [3] | IC50 [4] | IC50 [5] | inhibitory activity on A549 (in words) [3] | inhibitory effect on SH-SY5Y (in words) ([2]; summary of Table 1) | inhibitory effect on MCF-7 (in words) ([4]; MTT, summary of Table 1) |
| --- | --- | --- | --- | --- | --- | --- | --- | --- |
| Fc1ccc(COc2ccccc2Nc2ncnc3cc4c(cc23)OCCOCCO4)cc1 [Compound 4, N-(2-((p-fluorophenyl)methoxy)phenyl)-6,7-(benzo-9-crown-3)-4-quinazolinamine] | > 100 µM | 84.5 µM | 14.4 µM | > 100 µM | > 100 µM | – | – | – |
| Fc1ccc(COc2cccc(Nc3ncnc4cc5c(cc34)OCCOCCO5)c2)cc1 [Compound 5, N-(3-((p-fluorophenyl)methoxy)phenyl)-6,7-(benzo-9-crown-3)-4-quinazolinamine] | > 100 µM | 55.3 µM | 7.84 µM | 78.2 µM | > 100 µM | strong specific inhibitory activity | – | – |
| Fc1ccc(COc2ccc(Nc3ncnc4cc5c(cc34)OCCOCCO5)cc2)cc1 [Compound 6, N-(4-((p-fluorophenyl)methoxy)phenyl)-6,7-(benzo-9-crown-3)-4-quinazolinamine] | > 100 µM | 82.7 µM | 43.3 µM | 65.2 µM | > 100 µM | – | – | – |
| FC(F)(F)c1ccc(COc2ccccc2Nc2ncnc3cc4c(cc23)OCCOCCO4)cc1 [Compound 7, N-(2-((4-trifluoromethylphenyl)methoxy)phenyl)-6,7-(benzo-9-crown-3)-4-quinazolinamine] | 87.4 µM | > 100 µM | > 100 µM | > 100 µM | > 100 µM | – | – | – |
| FC(F)(F)c1ccc(COc2cccc(Nc3ncnc4cc5c(cc34)OCCOCCO5)c2)cc1 [Compound 8, N-(3-((4-trifluoromethylphenyl)methoxy)phenyl)-6,7-(benzo-9-crown-3)-4-quinazolinamine] | > 100 µM | 19.3 µM | > 100 µM | > 100 µM | > 100 µM | – | – | – |
| FC(F)(F)c1ccc(COc2ccc(Nc3ncnc4cc5c(cc34)OCCOCCO5)cc2)cc1 [Compound 9, N-(4-((4-trifluoromethylphenyl)methoxy)phenyl)-6,7-(benzo-9-crown-3)-4-quinazolinamine] | > 100 µM | 30.4 µM | > 100 µM | > 100 µM | > 100 µM | – | – | – |
| N#Cc1ccc(COc2cccc(Nc3ncnc4cc5c(cc34)OCCOCCOCCO5)c2)cc1 [Compound 10, N-(3-((4-cyanophenyl)methoxy)phenyl)-6,7-(benzo-12-crown-4)-4-quinazolinamine] | > 100 µM | > 100 µM | > 100 µM | > 100 µM | > 100 µM | – | – | – |
| Fc1ccc(COc2ccccc2Nc2ncnc3cc4c(cc23)OCCOCCO4)cc1Cl [Compound 13, N-(2-((3-chloro,4-fluorophenyl)methoxy)phenyl)-6,7-(benzo-9-crown-3)-4-quinazolinamine] | > 100 µM | > 100 µM | 9.43 µM | > 100 µM | 88.6 µM | strong specific inhibitory activity | – | – |
| Fc1ccc(COc2ccc(Nc3ncnc4cc5c(cc34)OCCOCCO5)cc2)cc1Cl [Compound 15, N-(4-((3-chloro,4-fluorophenyl)methoxy)phenyl)-6,7-(benzo-9-crown-3)-4-quinazolinamine] | 76.5 µM | > 100 µM | > 100 µM | > 100 µM | > 100 µM | – | – | – |
| Fc1ccc(COc2ccc(Nc3ncnc4cc5c(cc34)OCCOCCOCCO5)cc2)cc1 [Compound 17, N-(4-((p-fluorophenyl)methoxy)phenyl)-6,7-(benzo-12-crown-4)-4-quinazolinamine] | > 100 µM | 20.7 µM | > 100 µM | 8.31 µM | > 100 µM | – | – | strong specific inhibitory effect |
| O=[N+]([O-])c1ccc(COc2cccc(Nc3ncnc4cc5c(cc34)OCCOCCOCCO5)c2)cc1 [Compound 19, N-(3-((4-nitrophenyl)methoxy)phenyl)-6,7-(benzo-12-crown-4)-4-quinazolinamine] | > 100 µM | > 100 µM | > 100 µM | > 100 µM | > 100 µM | – | – | – |
| c1ccc(COc2cccc(Nc3ncnc4cc5c(cc34)OCCOCCOCCO5)c2)cc1 [Compound 21, N-(3-((phenyl)methoxy)phenyl)-6,7-(benzo-12-crown-4)-4-quinazolinamine] | > 100 µM | 22.8 µM | > 100 µM | > 100 µM | > 100 µM | – | – | – |
| FC(F)(F)c1ccc(COc2ccccc2Nc2ncnc3cc4c(cc23)OCCOCCOCCO4)cc1 [Compound 22, N-(2-((4-trifluoromethylphenyl)methoxy)phenyl)-6,7-(benzo-12-crown-4)-4-quinazolinamine] | > 100 µM | > 100 µM | > 100 µM | > 100 µM | > 100 µM | – | – | – |
| FC(F)(F)c1ccc(COc2ccc(Nc3ncnc4cc5c(cc34)OCCOCCOCCO5)cc2)cc1 [Compound 24, N-(4-((4-trifluoromethylphenyl)methoxy)phenyl)-6,7-(benzo-12-crown-4)-4-quinazolinamine] | > 100 µM | > 100 µM | > 100 µM | > 100 µM | > 100 µM | – | – | – |

Compounds with a lower IC50 [1], results first:

| IC50 [1] | IC50 [2] | IC50 [3] | IC50 [4] | IC50 [5] | SMILES | inhibitory activity on A549 (in words) [3] | inhibitory effect on SH-SY5Y (in words) ([2]; summary of Table 1) | inhibitory effect on MCF-7 (in words) ([4]; MTT, summary of Table 1) |
| --- | --- | --- | --- | --- | --- | --- | --- | --- |
| 65.3 µM | 36.6 µM | 15.5 µM | 42.4 µM | > 100 µM | O=[N+]([O-])c1ccc(COc2cccc(Nc3ncnc4cc5c(cc34)OCCOCCO5)c2)cc1 [Compound 2, N-(3-((4-nitrophenyl)methoxy)phenyl)-6,7-(benzo-9-crown-3)-4-quinazolinamine] | – | – | – |
| 67.4 µM | 9.89 µM | 81.3 µM | > 100 µM | > 100 µM | N#Cc1ccc(COc2ccc(Nc3ncnc4cc5c(cc34)OCCOCCOCCO5)cc2)cc1 [Compound 11, N-(4-((4-cyanophenyl)methoxy)phenyl)-6,7-(benzo-12-crown-4)-4-quinazolinamine] | – | strong specific inhibitory effect | – |
| 31.3 µM | > 100 µM | > 100 µM | > 100 µM | > 100 µM | c1ccc(OCc2ccncc2)c(Nc2ncnc3cc4c(cc23)OCCOCCO4)c1 [Compound 12, N-(2-((4-pyridyl)methoxy)phenyl)-6,7-(benzo-9-crown-3)-4-quinazolinamine] | – | – | – |
| 43.6 µM | 22.7 µM | > 100 µM | > 100 µM | 90.1 µM | Fc1ccc(COc2cccc(Nc3ncnc4cc5c(cc34)OCCOCCO5)c2)cc1Cl [Compound 14, N-(3-((3-chloro,4-fluorophenyl)methoxy)phenyl)-6,7-(benzo-9-crown-3)-4-quinazolinamine] | – | – | – |
| 60.8 µM | 75.5 µM | 29.9 µM | > 100 µM | > 100 µM | O=[N+]([O-])c1ccc(COc2ccccc2Nc2ncnc3cc4c(cc23)OCCOCCOCCO4)cc1 [Compound 18, N-(2-((4-nitrophenyl)methoxy)phenyl)-6,7-(benzo-12-crown-4)-4-quinazolinamine] | – | – | – |
| 19.4 µM | 58.6 µM | > 100 µM | 66.5 µM | > 100 µM | O=[N+]([O-])c1ccc(COc2ccc(Nc3ncnc4cc5c(cc34)OCCOCCOCCO5)cc2)cc1 [Compound 20, N-(4-((4-nitrophenyl)methoxy)phenyl)-6,7-(benzo-12-crown-4)-4-quinazolinamine] | – | – | – |
| 19 µM | 20 µM | > 100 µM | > 100 µM | > 100 µM | Fc1ccc(COc2cccc(Nc3ncnc4cc5c(cc34)OCCOCCOCCOCCO5)c2)cc1 [Compound 25, N-(3-((p-fluorophenyl)methoxy)phenyl)-6,7-(benzo-15-crown-5)-4-quinazolinamine] | – | – | – |
| 55.5 µM | 39.3 µM | 43.9 µM | > 100 µM | > 100 µM | Fc1ccc(COc2ccc(Nc3ncnc4cc5c(cc34)OCCOCCOCCOCCO5)cc2)cc1 [Compound 26, N-(4-((p-fluorophenyl)methoxy)phenyl)-6,7-(benzo-15-crown-5)-4-quinazolinamine] | – | – | – |
| 29.2 µM | 24 µM | 48.5 µM | > 100 µM | > 100 µM | c1ccc(COc2ccccc2Nc2ncnc3cc4c(cc23)OCCOCCOCCOCCO4)cc1 [Compound 27, N-(2-((phenyl)methoxy)phenyl)-6,7-(benzo-15-crown-5)-4-quinazolinamine] | – | – | – |
| 55.5 µM | 39.3 µM | 43.9 µM | > 100 µM | > 100 µM | c1ccc(COc2cccc(Nc3ncnc4cc5c(cc34)OCCOCCOCCOCCO5)c2)cc1 [Compound 28, N-(3-((phenyl)methoxy)phenyl)-6,7-(benzo-15-crown-5)-4-quinazolinamine] | – | – | – |
